# Measured values: US5780590A, “Antithrombotic azacycloalkylalkanoyl peptides and pseudopeptides” (Rhone-Poulenc Rorer Pharmaceuticals Inc., priority 1996, dated 1998)
# Legend:
# [1] = tested on: ADP-induced platelet aggregation in platelet rich plasma; assay: Inhibition of ADP-Induced ex-vivo Platelet Aggregation; format: in vivo, mongrel dogs; conditions: dog, dose 5 mg/kg oral
# Source text: The Platelet Aggregation Assay is based on that described in Blood 66 (4), 946-952 (1985). The Fibrinogen-Binding Assay is essentially that of Ruggeri, Z. M., et al., Proc. Natl. Acad. Sci. USA 83, 5708-5712 (1986) and Plow, E. F., et al., Proc. Natl. Acad. Sci., USA 82, 8057-8061 (1985). The Inhibition of ADP-Induced ex-vivo Platelet Aggregation assay is based on that of Zucker, "Platelet Aggregation Measured by the Photoelectric Method", Methods in Enzymology 169, 117-133 (1989).
# Inhibition of ADP-Induced ex-vivo Platelet Aggregation
# Control blood samples are obtained 5-10 minutes prior to administration of a test compound in mongrel dogs weighing from 10 to 20 Kg. The compound is administered intragasticly, via aqueous gavage, or orally, via gelatin capsule. […]
# The blood samples are centrifuged at 1000 rpm for 10 minutes to obtain platelet rich plasma (PRP). […] Platelet count in the PRP is determined by using a Coulter Counter (Coulter Electronics, Hialeah, Fla.). […] Platelet aggregation is monitored spectrophotometrically utilizing a light transmission aggregometer (Bio/Data Platelet Aggregation Profiler, Model PAP-4, Bio/Data Corp., Horsham, Pa.). For the testing of a compound, the rate of change (slope) of light transmittance and the maximum light transmittance (maximum aggregation) is recorded in duplicate. […]
# [2] = Isothermal microcalorimetry of solid state form conversion; format: physicochemical; conditions: 60° C. (FIG. 8)
# Experimental: Isothermal microcalorimetry experiments on hygroscopic and non-hygroscopic crystalline forms of N-[N-[N-(4-piperdin-4-yl)butanoyl)-N-ethylglycyl]-(L)-aspartyl]-(L)-β-cyclohexylalanine amide are performed on a Thermometric® Thermal Activity Monitor (TAM). Solid state conversions of the different crystalline forms are studied by exposing the forms to different humidities or solvent vapors at different temperatures. The saturated salt solutions used to obtain different humidities were: KCl (80% RH), NaCl (75% RH), and NaBr (65% RH). Approximately 100 mg quantities of the forms are weighed into a TAM glass ampule and a microhygrostate containing a saturated salt solution (with excess solid) or an organic solvent is placed inside the ampule. The ampule is sealed, equilibrated to the temperature of the experiment, and lowered into the measuring position in the TAM. An identical system containing washed sea sand, in place of the form subject to testing, is placed on the reference side. Output power ([…]) is measured as a function of time (FIGS. 6-8).
# [3] = Moisture sorption isotherms; format: physicochemical; conditions: 25° C. (FIG. 9)
# Experimental: Moisture Sorption Isotherms of hygroscopic and non-hygroscopic crystalline forms of N-[N-[N-(4-piperdin-4-yl)butanoyl)-N-ethylglycyl]-(L)-aspartyl]-(L)-β-cyclohexylalanine amide are obtained on a VTI MB300G moisture balance. The experiments are conducted either by subjecting approximately 15 mg of the subject crystalline form to increasing and decreasing steps of % RH and following the weight gain (at each equilibrium step) as a function of % RH (FIG. 9) or by holding the subject crystalline form at constant humidity and following the weight gain as a function of time.
conversion to non-hygroscopic form at 100% RH [2],SMILES,"% Inhibition of ex-vivo Platelet Aggregation After Oral Administration, 24 h [1] [%]",% weight gain vs. % RH [3]
–,CCN(CC(=O)N[C@@H](CC(=O)O)C(=O)N[C@@H](CC1CCCCC1)C(N)=O)C(=O)CCCC1CCNCC1 [Example 15],5,–
without the liquification,CCN(CC(=O)N[C@@H](CC(=O)O)C(=O)N[C@@H](CC1CCCCC1)C(N)=O)C(=O)CCCC1CCNCC1 [hygroscopic form],–,picks up more water than the non-hygroscopic form as the RH increases
